The values below are quoted from earlier work in patent US4666715A, “Antibiotic AM-5344-A2 substance and process for the production thereof” (Kitasato Institute, priority 1980, dated 1987).

For series [1] the following is noted: known antibiotics, literature.
The test system of another series is Gram-positive bacterium. The settings on record: known antibiotics, literature.
For series [2] the following is noted: known antibiotics, literature. The source holds these as a separate data set.

Consider Cerulomycin, for which, in series [1], the “acidity (neutral)” value is “neutral”. For the same compound, in the series with Gram-positive bacterium, the “effective to Gram-positive bacteria” value is recorded as “effective”.
As for `CO[C@H]1[C@@H](O)[C@@H](C)O[C@H](O[C@H]2[C@H](Oc3cccc4c(O)c5c(=O)oc6ccc(C)c7c(=O)oc(c34)c5c67)O[C@H](C)[C@H](O)[C@@H]2O)[C@@H]1O` [Chartreusin], the “acidity (neutral)” value in series [1] is listed as “neutral”. For the same compound, the “effective to Gram-positive bacteria” value with Gram-positive bacterium was “effective”. Moreover, in series [2], the fat solubility result is reported as “fat-soluble”.
`COC(=O)c1cc2cc3cc4cc(CC(=O)O)c(C(=O)/C=C(\O)c5ccccc5O)c(OC)c4c(OC)c3c(O)c2c(=O)o1` [Thermorubin A]: in series [1], the “acidity (neutral)” value was “neutral”. Further, the “effective to Gram-positive bacteria” value in the series on Gram-positive bacterium is listed as “effective”.
For the compound Mekemycin, the “acidity (neutral)” value in series [1] is listed as “neutral”. In the series with Gram-positive bacterium, the “effective to Gram-positive bacteria” value was “effective”.
